Values of other authors, collected in patent US20170325481A1, “METHOD OF FORMING ENCAPSULATED COMPOSITIONS WITH ENHANCED SOLUBILITY AND STABILITY” (KEMIN INDUSTRIES, INC., priority 2011, published 2017).

Conditions: multiple nanosize emulsions, 4 weeks of storage at 50° C.

In the case of `CC1=C(/C=C/C(C)=C/C=C/C(C)=C/C=C/C=C(C)/C=C/C=C(C)/C=C/C2=C(C)CCCC2(C)C)C(C)(C)CCC1` [β-carotene], the “β-carotene left after storage” value is given as 32.3%.
